# Counter-ions that a name gives are not always drawn.
# Tests used:
# Format in all cases: cell-based, human
# [1] = system: peripheral immune cells; test: membrane-bound thiol expression of peripheral immune cells (CMTMR flow cytofluorimetry); details: α-lipoic acid 50 μM, captopril 10 μM, combination at the same concentrations
# Method: Peripheral immune cells of healthy donors (n=9) were isolated from the peripheral blood by means of density gradient centrifugation. Lymphocytes having a donor-dependent relative proportion of about 90% in this case normally represent the main fraction of the resulting total population of mononuclear cells. 10% of the mononuclear cells are represented by monocytes. The mononuclear cells obtained were taken up in special cell culture media and incubated in a gas incubator at 37° C., a relative humidity of 98% and 5% relative air-CO2 content. The metabolism of the primarily resting immune cells was activated by means of mitogenic stimulation (0.5 μg/ml of phytohemagglutinin). In order to test the influence of the combinations used according to the invention on the thiol status of thiol-deficient immune cells, these were artificially thiol-depleted. This was carried out by culturing in thiol-deficient media (RPMI 1603) according to tested procedures. Comparison cultures using whole media (RPMI 1640) served for the definition of the best possible normal value under culture conditions. The expression of membrane-bound thiol groups was likewise determined by flow cytofluorimetry. In this connection, chloromethyltetramethylrhodamine (CMTMR) was employed as a thiol conjugate under the conditions of a blocked membrane potential and of an inhibited diffusion capacity of the cells. The fluorescence intensity of the bound fluorochrome molecules on the cell membrane is in this case in turn proportional to the amount of the thiol groups on the cell surface.
# [2] = system: peritoneal macrophages; test: phagocytic ability of peritoneal macrophages (fluorochrome-labelled bacteria); details: treatment period of 6 days; for Phagocytosis rate: α-lipoic acid 50 μM, ambroxole 10 μM, enalapril 5 μM, captopril 10 μM
# Method: Peritoneal macrophages were isolated analogously to the procedure described under example 3 and cultured ex vivo. The determination of the phagocytic power was carried out by means of a cytofluorometric test at the individual cell level. In this test, the macrophages were cocultured with opsonized and fluorochrome-labelled bacteria. The amount of bacteria taken up in a defined time period was recorded quantitatively by means of the fluorescence intensity in the macrophages and was regarded as a measure of their phagocytic capacity. The influence of the combinations used according to the invention on the phagocytic ability of the peritoneal macrophages after a treatment period of 6 days is presented in Table 3.
# [3] = system: lymphocytes (peripheral immune cells); test: intracellular thiol expression of peripheral immune cells (CMFDA flow cytofluorimetry); details: α-lipoic acid 50 μM, captopril 10 μM, combination at the same concentrations
# Method: Peripheral immune cells of healthy donors (n=9) were isolated from the peripheral blood by means of density gradient centrifugation. Lymphocytes having a donor-dependent relative proportion of about 90% in this case normally represent the main fraction of the resulting total population of mononuclear cells. 10% of the mononuclear cells are represented by monocytes. The mononuclear cells obtained were taken up in special cell culture media and incubated in a gas incubator at 37° C., a relative humidity of 98% and 5% relative air-CO2 content. The metabolism of the primarily resting immune cells was activated by means of mitogenic stimulation (0.5 μg/ml of phytohemagglutinin). In order to test the influence of the combinations used according to the invention on the thiol status of thiol-deficient immune cells, these were artificially thiol-depleted. This was carried out by culturing in thiol-deficient media (RPMI 1603) according to tested procedures. Comparison cultures using whole media (RPMI 1640) served for the definition of the best possible normal value under culture conditions. […] Primarily nonfluorogenic CMFDA is in this case passively taken up by the cell. Binding to cytoplasmic thiol groups takes place via the chloromethyl radical. After removal of the acetate radicals by nonspecific cellular esterases, this, now cell membrane-impermeable complex becomes fluorogenic at an excitation wavelength λex=490 nm with an emission wavelength λem=520 nm. The mean fluorescence intensity of the sample (10,000 cells) is directly proportional to the concentration of the intracellular thiol groups. In FIG. 1, the action of the combination of α-lipoic acid and ambroxole (FIG. 1a) and α-lipoic acid and enalapril (FIG. 1b) on the intracellular thiol expression of lymphocytes is shown. […] The data are shown as the ratio of the cellular fluorescence intensity for calibration particles (beads) in each case analyzed in parallel. The active compound concentration of the respective combination is identical to the concentrations of the individual components.
# [4] = system: peritoneal macrophages; test: degree of differentiation and activation of peritoneal macrophages (CD15, CD11c, CD69, CD71); details: incubation for 6 days, control = 1.0, α-lipoic acid 50 μM, ambroxole 10 μM, enalapril 5 μM, captopril 10 μM; for CD15/69: CD69 on CD15-positive cells; for CD11c/71: CD71 on CD11c-positive cells
# Method: Peritoneal macrophages were isolated from patients under kidney replacement therapy according to the processes described under example 3 and cultured in the presence of the combinations of α-lipoic acid and effectors of the glutathione metabolism named according to the invention. After incubation for 6 days, the degree of differentiation of the peritoneal macrophages was determined cytofluorometrically by means of the expression of the cell surface antigens CD15 and CD11c, and the degree of cellular activation by means of the coexpression of the activation antigens CD69 on CD15-positive cells and CD71 on CD11c-positive cells.
# [5] = system: peritoneal macrophages; test: cytokine synthesis of peritoneal macrophages (enzyme immunoassay); details: treatment period of 6 days (n=10); α-lipoic acid 50 μM, ambroxole 10 μM, enalapril 5 μM, captopril 10 μM
# Method: In parallel to this, in this experimental batch the cell culture supernatants were recovered and the cytokines interleukin-6 (IL-6) and interleukin-1 receptor antagonist (IL-1ra) contained therein, synthesized and secreted by the peritoneal macrophages, were determined.
# [6] = system: T lymphocytes; test: activation markers CD69, CD25, CD71 of phytohemagglutinin-stimulated T lymphocytes; details: thiol-deficient cells, culture period of 72 hours, FIG. 3
# Method: In the culture batch described under example 1, human T lymphocytes were stimulated with […] of phyto-hemagglutinin. […] The influence of the combinations used according to the invention on the activation markers CD69 (early activation antigen), CD25 (intermediate activation antigen) and CD71 (late activation antigen) of T lymphocytes was investigated. In FIG. 3, the action of the combination of α-lipoic acid and ambroxole (FIG. 3a), and α-lipoic acid and enalapril (FIG. 3b) on the activation index of T lymphocytes is shown. Compared with normal T lymphocytes (activation index=1.0), in thiol-deficient cells a clear lowering of the activatability, confirming the cellular functional disorder, is to be noted. […] It can thus be concluded that the normalization of the cellular thiol status mediated by the combined use of α-lipoic acid and the respective effectors of the glutathione metabolism is accompanied by a restitution of the cellular functionality.
# [7] = system: peritoneal macrophages; test: stability of membrane-bound thiol restitution in peritoneal macrophages in the dialysis model; details: dialysis model over 14 days; FIG. 7
# Method: The peritoneal macrophages described under example 3, which were thiol-restituted by means of the combinations used according to the invention, were removed from this test system after 6 days and cultured in a dialysis model over a period of 14 days. For this, the peritoneal macrophages were adapted to mobile collagen IV-coated matrices and brought into contact with conventional dialysis solution 3 times daily for 60 minutes each. This model served here for the induction of a combined […]/osmotic stress. In FIG. 6, the action of the combination of α-lipoic acid and ambroxole (FIG. 6a), and α-lipoic acid and enalapril (FIG. 6b) on the intracellular thiol expression of the peritoneal macrophages in the time kinetics is presented. The membrane expression of thiols was determined by means of the mean fluorescence intensity (mfi) of the sample (3000 cells/measurement) after coupling to a chloro-methylfluorochrome derivative.
# [8] = system: peritoneal macrophages; test: cellular thiol expression of peritoneal macrophages in kidney replacement therapy; details: time kinetics over 14 days (n=12); FIG. 4
# Method: Peritoneal macrophages were isolated from the effluate of the peritoneal dialysis of high-grade renally insufficient patients, taken up in cell culture medium and incubated in a gas incubator at 37° C., a relative humidity of 98% and 7.5% relative air-CO2 content. In order to test the influence of the combinations used according to the invention on the thiol status of the peritoneal macrophages, in each case a fraction was treated with α-lipoic acid, the effector of the glutathione metabolism ambroxole or the ACE inhibitor enalapril or with the combination of α-lipoic acid/ambroxole or α-lipoic acid/enalapril, while in each case a further fraction was used as an untreated control. The determination of the cellular thiol status was carried out by means of the measuring method described under 1. The membrane expression of thiols was determined by means of the mean fluorescence intensity (mfi) of the sample (3000 cells/measurement) after coupling to a chloromethylfluorochrome derivative. In FIG. 4, the effect of the combination of α-lipoic acid and ambroxole (FIG. 4a), and α-lipoic acid and enalapril (FIG. 4b) in the time kinetics over 14 days is shown (n=12).
SMILES,Phagocytosis rate [2],CD15/69 [4],CD11c/71 [4],CD11c [4],CD15 [4],IL-1ra [5],IL-6 [5],"increase in the phagocytosis rate in relation to the untreated control, factor [2]",effect on the activation index of T lymphocytes (in words) [6],membrane-bound thiol expression in the dialysis model (in words) [7],other results
"C[C@H](CS)C(=O)N1CCC[C@H]1C(=O)O [Captopril, 1-[(2S)-3-mercapto-2-methylpropionyl]-L-proline]","653 ± 43 mfi/10,000 cells",1.69 ± 0.21,1.52 ± 0.16,1.26 ± 0.24,1.19 ± 0.14,129.4 ± 25.1 ng/10^6 cells,42.9 ± 7.7 ng/10^6 cells,–,–,–,Membrane-bound thiol expression ([1]; culture period 0 d): 2.37 ± 0.45 mfiBeads/Ratio; Membrane-bound thiol expression ([1]; culture period 1 d): 2.63 ± 0.39 mfiBeads/Ratio; Membrane-bound thiol expression ([1]; culture period 2 d): 2.54 ± 0.41 mfiBeads/Ratio; Membrane-bound thiol expression ([1]; culture period 3 d): 2.52 ± 0.38 mfiBeads/Ratio; Membrane-bound thiol expression ([1]; culture period 4 d): 2.50 ± 0.41 mfiBeads/Ratio; Membrane-bound thiol expression ([1]; culture period 6 d): 2.46 ± 0.50 mfiBeads/Ratio; Membrane-bound thiol expression ([1]; culture period 8 d): 2.01 ± 0.39 mfiBeads/Ratio; Membrane-bound thiol expression ([1]; culture period 10 d): 1.68 ± 0.29 mfiBeads/Ratio; Membrane-bound thiol expression ([1]; culture period 12 d): 1.02 ± 0.51 mfiBeads/Ratio; Membrane-bound thiol expression ([1]; culture period 14 d): 0.99 ± 0.46 mfiBeads/Ratio; intracellular thiol expression ([3]; culture period 0 d): 2.88 ± 0.20 mfiBeads/Ratio; intracellular thiol expression ([3]; culture period 1 d): 2.80 ± 0.21 mfiBeads/Ratio; intracellular thiol expression ([3]; culture period 2 d): 2.76 ± 0.22 mfiBeads/Ratio; intracellular thiol expression ([3]; culture period 3 d): 2.49 ± 0.26 mfiBeads/Ratio; intracellular thiol expression ([3]; culture period 4 d): 2.21 ± 0.36 mfiBeads/Ratio; intracellular thiol expression ([3]; culture period 6 d): 1.83 ± 0.33 mfiBeads/Ratio; intracellular thiol expression ([3]; culture period 8 d): 1.02 ± 0.39 mfiBeads/Ratio; intracellular thiol expression ([3]; culture period 10 d): 0.91 ± 0.46 mfiBeads/Ratio; intracellular thiol expression ([3]; culture period 12 d): 0.76 ± 0.49 mfiBeads/Ratio; intracellular thiol expression ([3]; culture period 14 d): 0.75 ± 0.56 mfiBeads/Ratio
"CCOC(=O)[C@H](CCc1ccccc1)NC(C)C(=O)N1CCCC1C(=O)O (stereo in doubt) [Enalapril, 1-{N—[(S)-1-ethoxycarbonyl-3-phenylpropyl]-L-alanyl}-L-proline]","567 ± 59 mfi/10,000 cells",1.19 ± 0.12,1.10 ± 0.14,1.23 ± 0.22,1.21 ± 0.22,121.1 ± 16.9 ng/10^6 cells,41.7 ± 7.3 ng/10^6 cells,1.53,only equivalent in the case of the effectuation of the CD25 antigen of the α-lipoic acid,marginal effects,–
"Nc1c(Br)cc(Br)cc1CNC1CCC(O)CC1 (stereo not drawn) [Ambroxole, hydrochloride]","501 ± 52 mfi/10,000 cells",0.98 ± 0.11,0.96 ± 0.1,1.01 ± 0.09,0.98 ± 0.13,118.6 ± 21.3 ng/10^6 cells,51.8 ± 8.1 ng/10^6 cells,1.35,no influence on one of the three activation markers,marginal effects,effect on the cellular thiol expression of peritoneal macrophages (in words) [8]: no effect
